Like-named read-outs stand apart in the source and are kept apart here.
How the values were obtained:
[1] = tested on: human plasma; settings: for effect on the clotting time of human plasma: APTT test; for APTT Average: average of subjects
Description: (§1) Coagulation time of fresh whole blood can be determined with the Lee-White test by visually observing clot formation. Activation of the intrinsic coagulation pathway can be determined by measuring the activated partial thromboplastin time (APTT) as for example, shown in the FIGURE. In this test, the time to formation of a fibrin clot in re-calcified citrated plasma is measured using a coagulation analyzer instrument.
Clotting times of plasma samples were measured using the Amelung KC 4 A™ micro coagulation analyzer (Sigma Diagnostics, Germany). A cuvette was placed into a rotating well of the analyzer and a small stainless steel ball was dispensed into the cuvette. 100 μL of Pathromtin SL reagent were dispensed into the cuvette and then 100 μL of human plasma were added. For trials with the solution, 10 μL of water or of a solution dilution were added. After 2 minutes of incubation, 100 μL of CaCl2 were dispensed into each cuvette. The analyzer timer was started immediately and clotting time was recorded when the timer stopped.
On each day, control plasma N (normal) and control plasma P (abnormal/prolonged) were tested for quality control. At least two identical samples (duplicates) were tested simultaneously for each trial. The means and percent differences between duplicates were calculated. If the difference between duplicates was twenty percent or less, that trial's data was used for further analysis.

[2] = tested on: whole human blood
[3] = tested on: whole sheep blood; settings: liquid component added to blood, versus control
Description: as §1

[4] = listed as diammonium phosphate solution

N.N.O=P(O)(O)O [Sample A liquid, diammonium hydrogen-phosphate]
effect on the clotting time of human plasma ([1]; listed as diammonium hydrogen-phosphate solution): prolongs the clotting time of human plasma | effect on the clotting time of human plasma [1, 4]: delay and/or prevent clotting | APTT Average ([1]; NH4 Conc. 10 mM in the 310 μL total volume): 42.7 s | Subject APTT ([1]; NH4 Conc. 10 mM in the 310 μL total volume, subject 1): 49.8 s | Subject APTT ([1]; NH4 Conc. 10 mM in the 310 μL total volume, subject 2): 36.5 s | Subject APTT ([1]; NH4 Conc. 10 mM in the 310 μL total volume, subject 3): 42.6 s | Subject APTT ([1]; NH4 Conc. 10 mM in the 310 μL total volume, subject 4): 42.9 s | Subject APTT ([1]; NH4 Conc. 10 mM in the 310 μL total volume, subject 5): 47.9 s | Subject APTT ([1]; NH4 Conc. 10 mM in the 310 μL total volume, subject 6): 39.0 s | Subject APTT ([1]; NH4 Conc. 10 mM in the 310 μL total volume, subject 7): 32.5 s | Subject APTT ([1]; NH4 Conc. 10 mM in the 310 μL total volume, subject 8): 50.9 s | APTT Average ([1]; NH4 Conc. 20 mM in the 310 μL total volume): 50.8 s | Subject APTT ([1]; NH4 Conc. 20 mM in the 310 μL total volume, subject 1): 64.5 s | Subject APTT ([1]; NH4 Conc. 20 mM in the 310 μL total volume, subject 2): 46.3 s | Subject APTT ([1]; NH4 Conc. 20 mM in the 310 μL total volume, subject 4): 47.3 s | Subject APTT ([1]; NH4 Conc. 20 mM in the 310 μL total volume, subject 5): 62.2 s | Subject APTT ([1]; NH4 Conc. 20 mM in the 310 μL total volume, subject 6): 38.0 s | Subject APTT ([1]; NH4 Conc. 20 mM in the 310 μL total volume, subject 7): 37.7 s | Subject APTT ([1]; NH4 Conc. 20 mM in the 310 μL total volume, subject 8): 59.7 s | APTT Average ([1]; NH4 Conc. 30 mM in the 310 μL total volume): 67.6 s | Subject APTT ([1]; NH4 Conc. 30 mM in the 310 μL total volume, subject 1): 79.8 s | Subject APTT ([1]; NH4 Conc. 30 mM in the 310 μL total volume, subject 2): 52.8 s | Subject APTT ([1]; NH4 Conc. 30 mM in the 310 μL total volume, subject 3): 64.2 s | Subject APTT ([1]; NH4 Conc. 30 mM in the 310 μL total volume, subject 4): 64.6 s | Subject APTT ([1]; NH4 Conc. 30 mM in the 310 μL total volume, subject 5): 86.9 s | Subject APTT ([1]; NH4 Conc. 30 mM in the 310 μL total volume, subject 6): 58.5 s | Subject APTT ([1]; NH4 Conc. 30 mM in the 310 μL total volume, subject 7): 57.5 s | Subject APTT ([1]; NH4 Conc. 30 mM in the 310 μL total volume, subject 8): 76.4 s | APTT Average ([1]; NH4 Conc. 40 mM in the 310 μL total volume): 185.2 s | Subject APTT ([1]; NH4 Conc. 40 mM in the 310 μL total volume, subject 1): 236.5 s | Subject APTT ([1]; NH4 Conc. 40 mM in the 310 μL total volume, subject 4): 154.4 s | Subject APTT ([1]; NH4 Conc. 40 mM in the 310 μL total volume, subject 5): 186.2 s | Subject APTT ([1]; NH4 Conc. 40 mM in the 310 μL total volume, subject 6): 111.9 s | Subject APTT ([1]; NH4 Conc. 40 mM in the 310 μL total volume, subject 7): 166.2 s | Subject APTT ([1]; NH4 Conc. 40 mM in the 310 μL total volume, subject 8): 255.8 s | effect on clotting in whole human blood [2]: delay and/or prevent clotting | effect on the Lee-White clotting time of whole sheep blood ([3]; listed as Sample A liquid component): prolonged | effect on the Lee-White clotting time of whole sheep blood [3, 4]: delay and/or prevent clotting

From patent US20080075788A1, “DIAMMONIUM PHOSPHATE AND OTHER AMMONIUM SALTS AND THEIR USE IN PREVENTING CLOTTING” (priority 2006, published 2008)
